Experimental data reported in patent publication US6605619B1, “Nitroxides as protectors against oxidatives stress” (The United States of America as represented by the …, priority 1992, dated 2003).
Marks after values point to notes of the source that are not given here.

Columns and labels:
[1] = system: Chinese hamster V79 cells; test: Protection of cells exposed to H2O2 under hypoxic conditions; assay type: cell-based; conditions: 600 μM H2O2, 1 h, 37° C.
Protocol: Some studies required exposure to H2O2 under hypoxic conditions. For these studies, cells dispersed in 1.8 ml of medium were plated into specially designed glass flasks (Russo et al, Radiat. Res., 103, 232-239, 1985). The flasks were sealed with soft rubber stoppers, and 19-gauge needles were pushed through to act as entrance and exit ports for a humidified gas mixture of 95% nitrogen/5% CO2 (Matheson Gas Products). […] Stoppered flasks were connected in series and mounted on a reciprocating platform and gassed at 37° C. for 45 min. […] After 45 min of gassing, the hypoxic H2O2 solution was added to the cell monolayer culture. The cells were exposed to H2O2 for 1 h under hypoxic conditions. N2 gas flow was maintained during the H2O2 exposure. In parallel flasks, DF and CHD were added as described above, and were present during the entire gassing procedure. Following treatment, cell survival was assessed as described above.

[2] = Water/octanol partition of nitroxides, ratio determined by EPR; assay type: physicochemical; conditions: Octanol:water
Text: CHD, 2-spirocyclohexane doxyl(2-spirocyclohexane-5,5-dimethyl-3-oxazolidinoxyl) and OXANO, 2-ethyl-2,5,5-trimethyl-3-oxazolidine-1-oxyl as well as other nitroxides were synthesized as described by Keana et al (J. Am. Chem. Soc., 89, 3055-3056, 1967) For the general synthesis of the cyclic amines, the appropriate starting ketone was reacted with 2-amino-2-methyl-1-propanol in benzene in the presence of catalytic amounts of p-toluene sulfonic acid. As the cyclic structure formed, water was eliminated. The volume of water collected in a Dean Stark apparatus was monitored and used to gauge the reaction progress. The amines thus produced were purified through fractional distillation under reduced pressure, characterized by 220 MHz ^1H NMR, IR, UV, either EI or CI mass spectroscopy, and subsequently oxidized to the corresponding nitroxides using m-chloroperbenzoic acid. The nitroxides were purified by silica flash chromatography (Still et al, J. Org. Chem., 43, 2923-2925, 1978). Water/octanol ratios were determined by placing a quantity of nitroxide in water+octanol within a separatory funnel. The mixture was shaken thoroughly and allowed to separate for 15 min, whereupon aliquots were taken from both fractions and the ratio of nitroxide distribution was determined using electron paramagnetic resonance (EPR) spectroscopy, by comparing the intensities of signal obtained under N2.

DNA-Fe(II) = test: Reaction of nitroxide with DNA-Fe(II), EPR spin-loss and OD353nm; assay type: biochemical, Salmon; conditions: hypoxic mixing, 0.1 mg/ml Salmon DNA, 50 mM MOPS pH 7.0, 22° C.
Protocol: All solutions always contained 0.1 mg/ml Salmon DNA. The appearance of DNA-Fe(III) was spectrophotometrically monitored at 353 nm, whereas the spin-loss of CHD was monitored by following its EPR signal. To study the time-dependence of ΔOD353nm (∘), 1 mM CHD was mixed with 0.1 mM Fe(II). To follow the spin-loss of CHD (□), 1 mM Fe(II) was mixed with 0.1 mM CHD.
It was also questioned whether the aerobic and hypoxic protection by CHD to H2O2 exposure was a result of CHD directly accepting electrons from ferrous ions, thereby preventing generation of .OH. Because cellular iron is chelated, the possible reaction of nitroxide with chelated iron(II) was examined by repeating the experiment in the presence of DNA. To study the possibility of nitroxide-induced oxidation of transition metals, CHD was hypoxically mixed with iron(II) in the presence of 0.1 mg/ml Salmon DNA. Consequently, DNA-Fe(III) was formed and the nitroxide EPR signal disappeared. The reaction kinetics were investigated by maintaining either CHD or Fe(II) in excess while the absorbance due to DNA-Fe(III) and the nitroxide spin-loss were monitored respectively (FIG. 6). Both the decay of the EPR signal and the appearance of the OD353nm obeyed pseudo 1st order kinetics from which the 2nd order reaction rate constant was calculated as 44 M^−1s^−1 or 33 M^−1s^−1 using the data from EPR or optical absorption, respectively.

[3] = SOD-inhibitable ferricytochrome c reduction assay, rate constants of reaction with O2 (SOD-like activity); assay type: biochemical; conditions: low ionic strength (10 mM HEPES), pH 7.0, 22° C.
Text: As a further check, the reaction of representatives of both 5- and 6-membered cyclic nitroxides with O2 was studied. The SOD-inhibitable ferricytochrome c reduction assay (Fridovich, Handbook of Methods for Oxygen Radical Research, 213-215, 1985) was used to determine rate constants of reaction with O2. […] The reaction was started by adding 0.01 U/ml XO and the rate of ferricytochrome c reduction, in the absence (V) and in the presence (v) of various nitroxides, was spectrophotometrically followed at 550 nm. Both reference and sample cuvettes contained all the reagents, with the reference cuvette containing 100 units/ml SOD, thereby eliminating spurious reactions from interfering with the determination of rate constants. Data were analyzed by plotting V/v as a function of [nitroxide] and k1 was calculated, knowing kCytC+superoxide, according to:
(V/v)−1=k1x[nitroxide]/kCytC+superoxidex[Cyt−c^III].

[4] = H2O2 accumulation and decay in tissue culture exposed to HX/XO (H2O2 selective electrode); assay type: cell-based, Chinese hamster; conditions: presence of CHD
Protocol: Chinese hamster V79 cells were plated in full medium and incubated at 37° C. with 5 mM HX+0.04 U/ml XO, sampled at various time points, and assayed for H2O2 using a hydrogen peroxide selective electrode.
Hydrogen peroxide was assayed using a YSI Model 27 Industrial Analyzer (Yellow Springs Instruments) equipped with a selective electrode for H2O2. For analysis of cellular preparations, the cells, except during the brief time required for removal of aliquots for analysis, were kept in T25 culture flasks maintained at 37° C. in complete medium (pH 7.2). Aliquots of 25 μl were sampled from the reaction or cell preparation system at varying time points and injected into the analyzer. [H2O2] was determined after calibrating the instrument with known concentrations of H2O2. The concentrations of standard H2O2 solutions were calibrated using iodometric assay (Hochanadel, J. Phys. Chem., 56, 587-594, 1952).

V79 cells = test: Nitroxide intracellular localization by EPR with trioxalato-chromiate; assay type: cell-based, Chinese hamster
Protocol: The EPR signal intensity of the total concentration of CHD (intra- and extra-cellular) in 6.4×10^7 V79 cells/ml traces (A and C) and in the presence of 110 mM trioxalato-chromiate (CrOx) (traces B and D).
For EPR experiments, samples (0.05-0.1 ml) either of solutions of chemicals or cell suspensions were drawn by a syringe into a gas-permeable teflon capillary of 0.8 mm inner diameter, 0.05 mm wall thickness (Zeus Industrial Products, Inc. Raritan, N.J.). Each capillary was folded twice, inserted into a narrow quartz tube which was open at both ends (2.5 mm ID), and then placed horizontally into the EPR cavity. During the experiments, gases of desired compositions were blown around the sample without having to disturb the alignment of the tube within the EPR cavity. EPR spectra were recorded in a Varian E4 (or E9) X-band spectrometer, with field set at 3357 G, modulation frequency of 100 KHz, modulation amplitude of 1 G and non-saturating microwave power. The EPR spectrometer was interfaced to an IBM-PC through an analog-to-digital converter and a data translation hardware (DT2801) and the spectra were digitized using commercial acquisition software, enabling subtraction of background signals. To study the kinetics of the spin-loss, the spectra were deliberately overmodulated, and the magnetic field was kept constant while the intensity of the EPR signal was followed. […]

CC1(C)CN([O])C2(CCCCC2)O1 [CHD, 2-spirocyclohexane-5,5-dimethyl-3-oxazolidinoxyl]
protection against H2O2 cytotoxicity under hypoxic conditions [1]: protects
Partition coefficient [2]: 80
2nd order reaction rate constant with DNA-Fe(II), from EPR data (DNA-Fe(II); EPR spin-loss): 44 M⁻¹ s⁻¹
2nd order reaction rate constant with DNA-Fe(II), from optical absorption (DNA-Fe(II); OD353nm): 33 M⁻¹ s⁻¹
kR′RNO + O2 [3]: 3.5 × 10^3 M − 1^s − 1
pattern of H2O2 generation by HX/XO [4]: did not significantly alter
intracellular location / freedom of motion (V79 cells): located primarily in a membranous compartment
